Source: article PMC12081876, “Identification of PTGR2 inhibitors as a new therapeutic strategy for diabetes and obesity” (EMBO Molecular Medicine, 2025)
Values joined by “and” are separate entries in the source; they are usually repeats but may differ in a detail not shown here. Identical values can stand only once.

Legend:
Type in all cases: in vivo, mouse
[1] = test system: HFHSD-fed obese C57BL6/J mice; assay: Body weight / diet-induced obesity in HFHSD-fed mice; details: Figure 5J, in g (unit assumed); for Body weight (individual mouse): BPRPT0245 group; for Body weight, Average: 100 mg/kg/day
[2] = test system: HFHSD-fed obese C57BL6/J mice; assay: Intraperitoneal glucose tolerance test (ipGTT); set-up: Figure 2H Average (glucose, ipGTT) / ipGTT / ipGTT glucose, Average / Blood glucose during glucose tolerance test (Figure 5L), Average: unit not given here; details: for ipGTT glucose, Average: BPRPT0245 100 mg/kg/day, group average (Figure 5L); for ipGTT glucose, individual mice: individual mouse values (Figure 5L, sheet BPRPT0245), in mg/dL (unit assumed)
Experimental: (§1) Glucose tolerance was evaluated by the oral (OGTT) and intraperitoneal glucose tolerance test (ipGTT) after a 6-h fast. For the OGTT, glucose water (1 mg/g) was given by oral gavage, and tail blood glucose was measured with a glucometer (ACCU-CHEK Performa, Roche) at 0, 15, 30, 45, 60, 90, and 120 min. For the ipGTT, tail blood glucose was measured at 0, 15, 30, 45, 60, 90, and 120 min after intraperitoneal injection of glucose water (1 mg/g). For the insulin tolerance test (ITT), mice were fasted for 4 h and then injected intraperitoneally with 1 U/kg of insulin (Humulin R, Eli Lilly). Tail blood glucose was measured at 0, 15, 30, 45, 60, 90, 120, and 180 min.

[3] = test system: HFHSD-fed obese C57BL6/J mice; assay: Insulin tolerance test (ITT); set-up: Figure 2I Average (glucose, ITT) / ITT / ITT glucose, Average / Blood glucose during insulin tolerance test (Figure 5M), Average: unit not given here; details: for ITT glucose, Average: BPRPT0245 100 mg/kg/day, group average (Figure 5M); for ITT glucose, individual mice: individual mouse values (Figure 5M, sheet BPRPT0245), in mg/dL (unit assumed)
Experimental: as §1

[4] = test system: HFHSD-fed obese C57BL6/J mice; assay: Body composition (fat mass, lean mass, free water, total water); set-up: Fat mass (Figure 5O) / lean mass (Figure 5O) / Free fluid (Figure 5O): unit not given beside the values
[5] = 100 mg/kg/day oral, HFHSD-fed mice, vs vehicle

## Cc1[nH]c2nc(C(C)N3CCN(c4ccccc4)CC3)nn2c(=O)c1Cc1ccc(F)cc1 (centres unmarked) [BPRPT0245]
[1]; week 15
  Body weight (individual mouse): 43.6 and 39.65 and 33.2 and 38.2
[1]; week 16
  Body weight, Average: 39.3033
  Body weight (individual mouse): 45.5 and 40.05 and 32.8 and 39.05
[1]; week 17
  Body weight, Average: 40.5333
  Body weight (individual mouse): 47.45 and 41.6 and 33.85 and 39.8
[1]; week 18
  Body weight, Average: 40.9333
  Body weight (individual mouse): 47.8 and 41.55 and 34.1 and 40.8
[1]; week 19
  Body weight, Average: 42.11
  Body weight (individual mouse): 50.9 and 42.65 and 34.9 and 42.2
[1]; week 20
  Body weight, Average: 41.4833
  Body weight (individual mouse): 50.45 and 41.95 and 34.25 and 41.75
[1]; week 21
  Body weight, Average: 42.9333
  Body weight (individual mouse): 52.5 and 42.9 and 35.35 and 43.3
[1]; week 22
  Body weight, Average: 43.33
  Body weight (individual mouse): 53.9 and 43.35 and 35.75 and 44.95
[1]; week 23
  Body weight, Average: 44.06
  Body weight (individual mouse): 55.05 and 46.1 and 36.75 and 45.25
[1]; week 24
  Body weight, Average: 44.36
  Body weight (individual mouse): 50.35 and 46.35 and 37 and 46.4
[1]; week 25
  Body weight, Average: 45.28
  Body weight (individual mouse): 54.2 and 47.6 and 36.05 and 48.2
[2]; 0 minute
  ipGTT glucose, Average: 153.667
  ipGTT glucose, individual mice: 129 and 127 and 202 and 168 and 162 and 152 and 179 and 142 and 147 and 175 and 150 and 108 and 169
[2]; [5]
  glucose tolerance (ipGTT): improved glucose tolerance
[2]; 15 minute
  ipGTT glucose, Average: 305
  ipGTT glucose, individual mice: 325 and 328 and 302 and 300 and 251 and 345 and 316 and 291 and 297 and 290 and 312 and 319 and 271 and 303
[2]; 30 minute
  ipGTT glucose, Average: 285.933
  ipGTT glucose, individual mice: 318 and 250 and 316 and 269 and 323 and 308 and 260 and 273 and 295 and 280 and 325 and 283 and 289 and 215 and 285
[2]; 45 minute
  ipGTT glucose, Average: 242.333
  ipGTT glucose, individual mice: 261 and 181 and 275 and 209 and 208 and 318 and 231 and 278 and 227 and 225 and 336 and 288 and 173 and 200
[2]; 60 minute
  ipGTT glucose, Average: 219.733
  ipGTT glucose, individual mice: 262 and 155 and 167 and 252 and 207 and 264 and 223 and 275 and 201 and 277 and 228 and 194 and 179 and 205
[2]; 90 minute
  ipGTT glucose, Average: 192.133
  ipGTT glucose, individual mice: 204 and 144 and 134 and 174 and 173 and 260 and 232 and 213 and 160 and 193 and 231 and 169 and 117 and 218
[2]; 120 minute
  ipGTT glucose, Average: 185.4
  ipGTT glucose, individual mice: 218 and 166 and 140 and 179 and 201 and 221 and 215 and 198 and 168 and 199 and 217 and 208 and 174 and 111
[3]; 0 minutes
  ITT glucose, Average: 210.867
  ITT glucose, individual mice: 210 and 207 and 221 and 237 and 223 and 175 and 211 and 215 and 171 and 203 and 242 and 227 and 190
[3]; [5]
  insulin sensitivity (ITT): improved
[3]; 15 minutes
  ITT glucose, Average: 143.067
  ITT glucose, individual mice: 156 and 120 and 180 and 189 and 164 and 136 and 112 and 129 and 113 and 144 and 148 and 135 and 145
[3]; 30 minutes, 100 mg/kg/day
  ITT glucose, Average: 94.067 and 94.0667
[3]; 30 minutes
  ITT glucose, individual mice: 106 and 97 and 111 and 100 and 102 and 82 and 74 and 96 and 105 and 107 and 84 and 69 and 88
[3]; 45 minutes, 100 mg/kg/day
  ITT glucose, Average: 78.667 and 78.6667
[3]; 45 minutes
  ITT glucose, individual mice: 95 and 77 and 90 and 86 and 83 and 78 and 69 and 70 and 74 and 85 and 61 and 71
[3]; 60 minutes
  ITT glucose, Average: 69.8
  ITT glucose, individual mice: 65 and 78 and 72 and 69 and 82 and 52 and 61 and 71 and 75 and 90 and 68 and 59
[3]; 90 minutes, 100 mg/kg/day
  ITT glucose, Average: 59.667 and 59.6667
[3]; 90 minutes
  ITT glucose, individual mice: 57 and 51 and 69 and 75 and 72 and 54 and 65 and 46 and 45 and 59 and 84 and 67 and 53
[3]; 120 minutes, 100 mg/kg/day
  ITT glucose, Average: 71.467 and 71.4667
[3]; 120 minutes
  ITT glucose, individual mice: 61 and 65 and 87 and 74 and 76 and 66 and 70 and 69 and 114 and 57 and 56
[3]; 180 minutes, 100 mg/kg/day
  ITT glucose, Average: 90.933 and 90.9333
[3]; 180 minutes
  ITT glucose, individual mice: 83 and 84 and 113 and 70 and 94 and 69 and 85 and 73 and 98 and 104 and 130 and 99 and 76
[4]; [5]
  body composition: fat mass: marginally significantly reduced fat mass
  fluid retention (body composition): did not cause fluid retention
[4]; individual animals
  Fat mass (Figure 5O): 18.94 and 14.08 and 8.33 and 20.43 and 12.66 and 22.41 and 12.99 and 8.39 and 11.25 and 10.06
  Free fluid (Figure 5O): 3.62 and 3.13 and 2.31 and 3.61 and 2.85 and 4.07 and 3.08 and 2.76 and 3.02 and 2.68
  lean mass (Figure 5O): 26.38 and 24.44 and 20.16 and 22.44 and 28.07 and 22.14 and 23.04 and 23.87 and 21.38
[4]; individual animals, in g (unit assumed)
  Total water (Figure 5O): 24.73 and 22.68 and 18.44 and 23.16 and 20.8 and 26.52 and 20.79 and 21.19 and 22.12 and 19.78
